According to patent publication US8480909B2, “Method for treatment of canals” (priority 2009, dated 2013):
“Also recorded” adds a separate entry of the source.

Key:
amphibians = conditions: cited from earlier work
zooplankton = conditions: cited from earlier work
mollusks = conditions: cited from earlier work
fish = conditions: cited from earlier work
[1] = cited from earlier work
insects = conditions: cited from earlier work
crustaceans = conditions: cited from earlier work
algae = test: Treatment of agricultural-water canal with air-stream-entrained calcium hypochlorite; visual observation of algae; assay type: in vivo; conditions: per quarter-mile canal section
From the text: The device and method of the present invention were employed to treat a canal, and visual observations of the amount of algae present in the canal before this treatment, and periodically after this treatment, are set forth in Tables 1-3 below. (The visual observations are accurate and realistic evaluations because the visual amount of algae in the canal correlates well to actual biological-debris problems.) This canal is fed from a large water reservoir which has about thirty percent of its surface covered with algae. This canal is therefore continuously being inoculated with algae which enters with the source water. The flow rate of the water when entering the canal is about one hundred eighty cubic feet per second. Due to water usage from the various growers along the canal, this initial water flow rate decreases at points along the canal, and then decreases dramatically over the last mile to about twenty cubic feet per second. This canal is a typical example of one which is in need of treatment to remediate organic debris. Prior to the treatments of this Example 1, this canal was being point treated with acrolein every eight to ten days during the height of the irrigation season to obtain a satisfactory treatment. In this Example 1, the canal was treated three times along substantially its entire length by propelling a calcium hypochlorite-entrained air stream to the water surface and to the sides of the canal from a delivery system suspended off a mobile unit as described above. An operator made visual assessments of the degree of organic debris build-up along the canal and adjusted the concentration of calcium hypochlorite in the air stream accordingly. The pre-treatment and post-treatment conditions of the canal are shown in Tables 1, 2 and 3 below where the visual assessment of organic debris, made at each quarter mile along the length of the canal, are reported at: (a) just before treatment; (b) twelve hours after the treatment; (c) about a week (seven or eight days) after the treatment; and about a week and a half (ten, twelve and ten days, respectively) after treatment. The just before treatment assessment for the second and third treatments set forth in Tables 2 and 3 below are also continued-assessments of the prior treatment (i.e., the T2-b observations in Table 2 are the same as the T1-10d observations in Table 1, and the T3-b observations in Table 3 are the same as the T2-12d observations in Table 2). Further, any relative terms in an observation refer to the prior observation made at the given time; for example, the “slightly larger patches” observation under T1-10d at 0.75 to 1.00 miles in Table 1 below refers to the patches being slightly larger than the patches observed at T1-10d at 0.50 to 0.75 miles, and not to the canal condition observed at T1-7d at 0.75 to 1.00 miles.

rats = conditions: oral; cited from earlier work

C=CC=O [Acrolein]
average acute toxicity (amphibians): very highly toxic
average acute toxicity (zooplankton): highly toxic
average acute toxicity (mollusks): highly toxic
average acute toxicity (fish): highly toxic
water solubility [1]: 238,000 mg/L
average acute toxicity (insects): moderately toxic
average acute toxicity (crustaceans): moderately toxic

[Ca+2].[O-]Cl.[O-]Cl [calcium hypochlorite]
Canal Description (visual observation of algae) (algae; T1-12 h: 12 hr. after Treatment 1, canal section 2.75 to 3.00 miles): Canal visually free of algae.
Canal Description (visual observation of algae) (algae; T1-12 h: 12 hr. after Treatment 1, canal section 3.25 to 3.50 miles): Canal is visually free of algae.
Canal Description (visual observation of algae) (algae; T1-12 h: 12 hr. after Treatment 1, canal section 4.75 to 5.00 miles): Small amounts of discolored/dying algae are adhering to the bottom of the canal.
Canal Description (visual observation of algae) (algae; T1-12 h: 12 hr. after Treatment 1, canal section 5.50 to 5.75 miles): Small amounts of discolored/dying algae are adhering to bottom of the canal.
Canal Description (visual observation of algae) (algae; T1-12 h: 12 hr. after Treatment 1, canal section 5.75 to 6.00 miles): Small amounts of discolored/dying algae are adhering to the bottom and sides of
Canal Description (visual observation of algae) (algae; T1-7 d: 7 days after Treatment 1, canal section 0.00 to 0.25 miles): Clear, visually free of algae.
Canal Description (visual observation of algae) (algae; T1-7 d: 7 days after Treatment 1, canal section 2.75 to 3.00 miles): Slight amount of algae is growing on the water surface of the canal.
Canal Description (visual observation of algae) (algae; T1-7 d: 7 days after Treatment 1, canal section 3.25 to 3.50 miles): Slight amount of algae is growing on the water surface and along the sides of
Canal Description (visual observation of algae) (algae; T1-7 d: 7 days after Treatment 1, canal section 5.25 to 5.50 miles): Slight amount of is algae is growing on the water surface and along the sides
Canal Description (visual observation of algae) (algae; T1-7 d: 7 days after Treatment 1, canal section 5.50 to 5.75 miles): Slight amount of algae is growing on the water surface and along the sides
Canal Description (visual observation of algae) (algae; T1-7 d: 7 days after Treatment 1, canal section 6.50 to 6.75 miles): Small amount of algae is growing on the water surface. Slight amount of algae
Canal Description (visual observation of algae) (algae; T1-7 d: 7 days after Treatment 1, canal section 6.75 to 7.00 miles): Small amount of algae is growing on the water surface. Small amount of algae
Canal Description (visual observation of algae) (algae; T1-10 d: 10 days after Treatment 1): Slight amount of algae is growing along the sides of the canal; also recorded: Slight amount of algae is growing on the water surface and along the sides of; also recorded: Small amount of algae is growing on the water surface and along the sides of; also recorded: Slightly larger patches of algae are growing on the water surface and along
Canal Description (visual observation of algae) (algae; T2-12 h: 12 hr. after Treatment 2): Canal visually free of algae; also recorded: Small amounts of discolored/dying algae are adhering to bottom of the canal; also recorded: Small amounts of discolored/dying algae are adhering to the bottom and sides of
Canal Description (visual observation of algae) (algae; T2-8 d: 8 days after Treatment 2, canal section 0.00 to 0.25 miles): Clear, visually free of algae.
Canal Description (visual observation of algae) (algae; T2-8 d: 8 days after Treatment 2, canal section 3.00 to 3.25 miles): Slight amount of algae is growing on the water surface of the canal.
Canal Description (visual observation of algae) (algae; T2-8 d: 8 days after Treatment 2, canal section 4.00 to 4.25 miles): Slight amount of algae is growing on the water surface and along the sides of
Canal Description (visual observation of algae) (algae; T2-8 d: 8 days after Treatment 2, canal section 5.50 to 5.75 miles): Slight amount of algae is growing on the water surface and along the sides
Canal Description (visual observation of algae) (algae; T2-8 d: 8 days after Treatment 2, canal section 6.50 to 6.75 miles): Small amount of algae is growing on the water surface. The amount of algae
Canal Description (visual observation of algae) (algae; T2-8 d: 8 days after Treatment 2, canal section 6.75 to 7.00 miles): Small amount of algae on the water surface. The amount of algae on the sides
Canal Description (visual observation of algae) (algae; T2-12 d: 12 days after Treatment 2): Very slight amount of algae is growing along the sides of the canal; also recorded: Slight amount of algae is growing along the sides of the canal; also recorded: Slight amount of algae is growing on the water surface and along the sides; also recorded: Slight amount of algae is growing on water surface and along the sides and; also recorded: Slightly more algae is growing on water surface and along the sides of the; also recorded: Slightly more algae is growing on the water surface and along the sides of
Canal Description (visual observation of algae) (algae; T2-b: just before Treatment 2, 10 days after Treatment 1): Slight amount of algae is growing on the water surface and along the sides of the; also recorded: Slightly larger patches of algae are growing on the water surface and along the sides; also recorded: Slight amount of algae is growing along the sides of the canal
Canal Description (visual observation of algae) (algae; T3-12 h: 12 hr. after Treatment 3, canal section 3.25 to 3.50 miles): Canal visually free of algae.
Canal Description (visual observation of algae) (algae; T3-12 h: 12 hr. after Treatment 3, canal section 5.00 to 5.25 miles): Small amounts of discolored/dying algae are present.
Canal Description (visual observation of algae) (algae; T3-12 h: 12 hr. after Treatment 3, canal section 5.75 to 6.00 miles): Small amounts of discolored/dying algae are adhering to the bottom and sides of
Canal Description (visual observation of algae) (algae; T3-b: just before Treatment 3, 12 days after Treatment 2): Slight amount of algae is growing along the sides of the canal; also recorded: Slightly more algae is growing on the water surface and along the sides of the canal; also recorded: More algae is growing on the water surface of the canal. Small amount of algae is; also recorded: Very slight amount of algae is growing along the sides of the canal; also recorded: More algae is growing on the water surface of the canal. More algae is growing up
LD50 (rats): 850 gm/100 kg
